Legend:
[1] = target: T1, NLRP3 (Homo sapiens, UniProt Q96P20); assay: THP-1 cells pyroptosis assay; type: cell-based; parameters: Seed THP-1 cells (25,000 cells/well) containing 1.0 μg/ml LPS; host or cells: THP-1 cells, LPS-primed, nigericin-stimulated; details: 1.0 μg/ml LPS, compound 3 hrs, nigericin 5 μM 1 hr, resazurin readout
Procedure: THP-1 cells (ATCC #TIB-202) were grown in RPMI containing L-glutamine (Gibco #11835) supplemented with 1 mM sodium pyruvate (Sigma #S8636) and penicillin (100 units/ml)/streptomycin (0.1 mg/ml) (Sigma #P4333) in 10% Fetal Bovine Serum (FBS) (Sigma #F0804). The cells were routinely passaged and grown to confluency (˜10^6 cells/ml). On the day of the experiment, THP-1 cells were harvested and resuspended into RPMI medium (without FBS). The cells were then counted and viability (>90%) checked by Trypan blue (Sigma #T8154). Appropriate dilutions were made to give a concentration of 625,000 cells/ml. To this diluted cell solution was added LPS (Sigma #L4524) to give a […] Final Assay Concentration (FAC). 40 μl of the final preparation was aliquoted into each well of a 96-well plate. The plate thus prepared was used for compound screening.
The following method step-by-step assay was followed for compound screening. • 1. Seed THP-1 cells (25,000 cells/well) containing 1.0 μg/ml LPS in 40 μl of RPMI medium (without FBS) in 96-well, black walled, clear bottom cell culture plates coated with poly-D-lysine (VWR #734-0317) • 2. Add 5 μl compound (8 points half-log dilution, with 10 μM top dose) or vehicle (DMSO 0.1% FAC) to the appropriate wells • 3. Incubate for 3 hrs at 37° C., 5% CO2 • 4. Add 5 μl nigericin (Sigma #N7143) (FAC 5 μM) to all wells • 5. Incubate for 1 hr at 37° C., 5% CO2 • 6. At the end of the incubation period, spin plates at 300×g for 3 mins and remove supernatant • 7. Then add 50 μl of resazurin (Sigma #R7017) (FAC 100 μM resazurin in RPMI medium without FBS) and incubate plates for a further 1-2 hrs at 37° C. and 5% CO2 • 8. Plates were read in an Envision reader at Ex 560 nm and Em 590 nm • 9. IC50 data is fitted to a non-linear regression equation (log inhibitor vs response-variable slope 4-parameters) 96-well Plate Map

[2] = target: T1, NLRP3; assay: Human whole blood IL-1β release assay; type: cell-based; parameters: Human whole blood in Li-heparin tubes was obtained from healthy donors; from tissue; host or cells: human whole blood from healthy volunteer donors, LPS-primed, nigericin-stimulated; details: 1 μg/ml LPS, compound 3 hrs, nigericin 10 μM 1 hr, IL-1β in supernatant (AlphaLisa), read-out: HWB IC50
Procedure: For systemic delivery, the ability to inhibit NLRP3 when the compounds are present within the bloodstream is of great importance. For this reason, the NLRP3 inhibitory activity of a number of compounds in human whole blood was investigated in accordance with the following protocol.
Human whole blood in Li-heparin tubes was obtained from healthy donors from a volunteer donor panel. • 1. Plate out 80 μl of whole blood containing 1 μg/ml of LPS in 96-well, clear bottom cell culture plate (Corning #3585) • 2. Add 10 μl compound (8 points half-log dilution with 10 μM top dose) or vehicle (DMSO 0.1% FAC) to the appropriate wells • 3. Incubate for 3 hrs at 37° C., 5% CO2 • 4. Add 10 μl nigericin (Sigma #N7143) (10 μM FAC) to all wells • 5. Incubate for 1 hr at 37° C., 5% CO2 • 6. At the end of the incubation period, spin plates at 300×g for 5 mins to pellet cells and remove 20 μl of supernatant and add to 96-well v-bottom plates for IL-1β analysis (note: these plates containing the supernatants can be stored at −80° C. to be analysed at a later date) • 7. IL-1β was measured according to the manufacturer protocol (Perkin Elmer-AlphaLisa IL-1 Kit AL220F-5000) • 8. IC50 data is fitted to a non-linear regression equation (log inhibitor vs response-variable slope 4-parameters)

T1 sequence (Q96P20 whole entry): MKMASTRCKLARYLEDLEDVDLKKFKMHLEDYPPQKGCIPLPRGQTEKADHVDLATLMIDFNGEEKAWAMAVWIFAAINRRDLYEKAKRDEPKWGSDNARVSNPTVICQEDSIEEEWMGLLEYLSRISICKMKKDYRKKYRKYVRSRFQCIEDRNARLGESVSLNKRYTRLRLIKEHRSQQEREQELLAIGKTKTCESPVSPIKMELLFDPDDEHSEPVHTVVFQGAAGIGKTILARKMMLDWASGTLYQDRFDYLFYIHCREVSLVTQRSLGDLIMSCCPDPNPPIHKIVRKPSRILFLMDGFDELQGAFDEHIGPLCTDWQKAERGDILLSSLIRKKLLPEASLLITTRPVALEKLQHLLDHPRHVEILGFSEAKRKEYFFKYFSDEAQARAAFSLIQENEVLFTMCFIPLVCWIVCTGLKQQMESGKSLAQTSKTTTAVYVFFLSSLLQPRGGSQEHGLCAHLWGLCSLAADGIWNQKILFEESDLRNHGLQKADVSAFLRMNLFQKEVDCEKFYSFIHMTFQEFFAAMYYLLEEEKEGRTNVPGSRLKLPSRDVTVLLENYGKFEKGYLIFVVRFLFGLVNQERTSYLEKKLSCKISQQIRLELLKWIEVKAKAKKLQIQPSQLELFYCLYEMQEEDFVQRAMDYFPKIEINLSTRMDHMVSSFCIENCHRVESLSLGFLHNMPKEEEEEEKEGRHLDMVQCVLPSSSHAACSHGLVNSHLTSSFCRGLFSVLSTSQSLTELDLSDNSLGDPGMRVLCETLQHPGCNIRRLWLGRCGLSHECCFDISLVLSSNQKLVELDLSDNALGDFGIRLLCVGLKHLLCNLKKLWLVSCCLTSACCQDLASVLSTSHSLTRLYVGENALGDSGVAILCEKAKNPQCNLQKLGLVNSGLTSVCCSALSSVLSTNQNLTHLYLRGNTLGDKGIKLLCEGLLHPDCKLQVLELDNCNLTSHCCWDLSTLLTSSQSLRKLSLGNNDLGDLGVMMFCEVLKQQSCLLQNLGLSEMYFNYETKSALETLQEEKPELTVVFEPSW

IC50 [1] [nM]	IC50 [2] [nM]	SMILES
≤ 500	≤ 500	CN1CCOc2cc(ccn2)-c2ccc3c(c2Nc2nnc([nH]2)S(=O)(=O)N2CCC1CC2)CCC3 [Example 9, 25-methyl-22-oxa-2λ^6-thia-1,4,5,7,20,25,32-heptaazahexacyclo-[24.2.2.1^3,6.1^17,21.0^8,16.0^9,13]dotriaconta-3,5,8,13,15,17,19,21(31)-octaene-2,2-dioxide]
≤ 5000	≤ 10000	CC1(C)COc2cc(ccn2)-c2ccc3c(c2Nc2nnc([nH]2)S(=O)(=O)c2cccc1c2)CCC3 [Example 8, 22,22-dimethyl-24-oxa-16 λ^6-thia-11,13,14,26,31-pentazahexacyclo-[23.3.1.1^12,15.1^17,21.0^2,10.0^5,9] hentriaconta-1(28),2,4,9,12,14,17,19,21(30),25(29),26-undecaene 16,16-dioxide]
≤ 500	≤ 500	O=S1(=O)c2nnc([nH]2)Nc2c(ccc3c2CCC3)-c2ccnc(c2)OCCN2CCCC23CCN1CC3 [Example 5, 8-oxa-28λ^6-thia-5,10,23,25,26,29,34-heptazaheptacyclo-[27.2.2.1^9,13.1^24,27.0^1,5.0^14,22.0^17,21]pentatriaconta-9(35),10,12,14,16,21,24,26-octaene 28,28-dioxide]
≤ 100	≤ 500	O=S1(=O)c2nnc([nH]2)Nc2c(ccc3c2CCC3)-c2ccnc(c2)OCCN2CCC3(C2)CN1C3 [Example 3, 25-oxa-16λ^6-thia-11,13,14,17,22,27,33-heptazaheptacyclo-[24.3.1.1^12,15.1^17,19.1^19,22.0^2,10.0^5,9]tritriaconta-1(29),2,4,9,12,14,26(30),27-octaene 16,16-dioxide]
≤ 100	≤ 500	CC1(C)COc2cc(ccn2)-c2ccc3c(c2Nc2nnc([nH]2)S(=O)(=O)N2CC4(CCN1C4)C2)CCC3 [Example 10, 23,23-dimethyl-25-oxa-16λ^6-thia-11,13,14,17,22,27,33-heptaazaheptacyclo[24.3.1.1^12,15.1^17,19.1^19,22.0^2,10.0^5,9]tritriaconta-1(29),2,4,9,12,14,26(30),27-octaene-16,16-dioxide]

SMILES	IC50 [1] [nM]	IC50 [2] [nM]
CN1CCOc2cc(ccn2)-c2ccc3c(c2Nc2nnc([nH]2)S(=O)(=O)N2CC(C1)C2)CCC3 [Example 11, 21-methyl-24-oxa-16λ^6-thia-11,13,14,17,21,26,31-heptaazahexacyclo-[23.3.1.1^12,15.1^17,19.0^2,10.0^5,9]hentriaconta-1(28),2,4,9,12,14,25(29),26-octaene-16,16-dioxide]	≤ 100	≤ 500
